Laboratory results reported in patent US8541411B2, “Benzimidazole derivatives as PI3 kinase inhibitors” (GlaxoSmithKline LLC, priority 2010, dated 2013).

What was measured:
HCC19377 = assay: Anchorage Independent Soft Agar Tumor Growth Assay, HCC19377; assay type: cell-based; conditions: percent of DMSO-treated control at Ymin plateau
Protocol: (§1) Twenty-two Phosphatase and Tensin Homolog (PTEN) wild-type or PTEN deficient tumor cell lines were cultured generally according to instructions supplied by cell culture supplier American Type Culture Collection, Manassas, Va., with 10% fetal bovine serum at 5% CO2 and 37° C. Cells were seeded into either a T-75 or a T-175 flask 3-4 days prior to 96-well assay plating such that the flasks were approximately 70-80% confluent of the time of harvest. Cells were harvested using 0.25% trypsin-EDTA (Invitrogen #25200056). Trypan Blue exclusion staining was used to determine cell number. Viable cells were plated in clear, flat bottom 96-well plates (BD #353075) under anchorage independent conditions at 2,000-10,000 cells per well depending on the cell line. To generate anchorage independent growth conditions, a 5% agar stock solution in water was made and autoclaved to melt and sterilize. […] The next day one plate of cells was processed at the time of compound addition to quantify the starting number of cells (T=0 or T0). […] Following the 6-day incubation, 20 μl of Alamar Blue (Invitrogen #DAL1100) was added to the cells, incubated at 5% CO2 and 37° C. for 6 hours and the plates read on a Spectramax (Gemini EM) at 530 nm (excitation) and 590 nm (emission) with the auto cut-off disabled. […]

HCT-116 = assay: Anchorage Independent Soft Agar Tumor Growth Assay, HCT-116; assay type: cell-based; conditions: percent of DMSO-treated control at Ymin plateau
Protocol: as §1

HCC1954 = assay: Anchorage Independent Soft Agar Tumor Growth Assay, HCC1954; assay type: cell-based; conditions: percent of DMSO-treated control at Ymin plateau
Protocol: as §1

U251 = assay: Anchorage Independent Soft Agar Tumor Growth Assay, U251; assay type: cell-based; conditions: percent of DMSO-treated control at Ymin plateau
Protocol: as §1

WM-115 = assay: Anchorage Independent Soft Agar Tumor Growth Assay, WM-115; assay type: cell-based; conditions: percent of DMSO-treated control at Ymin plateau
Protocol: as §1

SW1783 = assay: Anchorage Independent Soft Agar Tumor Growth Assay, SW1783; assay type: cell-based; conditions: percent of DMSO-treated control at Ymin plateau
Protocol: as §1

UM-UC-3 = assay: Anchorage Independent Soft Agar Tumor Growth Assay, UM-UC-3; assay type: cell-based; conditions: percent of DMSO-treated control at Ymin plateau
Protocol: as §1

HCC1395 = assay: Anchorage Independent Soft Agar Tumor Growth Assay, HCC1395; assay type: cell-based; conditions: percent of DMSO-treated control at Ymin plateau
Protocol: as §1

SKOV-3 = assay: Anchorage Independent Soft Agar Tumor Growth Assay, SKOV-3; assay type: cell-based; conditions: percent of DMSO-treated control at Ymin plateau
Protocol: as §1

H4 = assay: Anchorage Independent Soft Agar Tumor Growth Assay, H4; assay type: cell-based; conditions: percent of DMSO-treated control at Ymin plateau
Protocol: as §1

U-87MG = assay: Anchorage Independent Soft Agar Tumor Growth Assay, U-87MG; assay type: cell-based; conditions: percent of DMSO-treated control at Ymin plateau
Protocol: as §1

Colo205 = assay: Anchorage Independent Soft Agar Tumor Growth Assay, Colo205; assay type: cell-based; conditions: percent of DMSO-treated control at Ymin plateau
Protocol: as §1

PC-3 = assay: Anchorage Independent Soft Agar Tumor Growth Assay, PC-3; assay type: cell-based, human; conditions: percent of DMSO-treated control at Ymin plateau
Protocol: as §1

SW1088 = assay: Anchorage Independent Soft Agar Tumor Growth Assay, SW1088; assay type: cell-based; conditions: percent of DMSO-treated control at Ymin plateau
Protocol: as §1

UACC-62 = assay: Anchorage Independent Soft Agar Tumor Growth Assay, UACC-62; assay type: cell-based; conditions: percent of DMSO-treated control at Ymin plateau
Protocol: as §1

CHL-1 = assay: Anchorage Independent Soft Agar Tumor Growth Assay, CHL-1; assay type: cell-based; conditions: percent of DMSO-treated control at Ymin plateau
Protocol: as §1

pAKT (pAKT/tAKT) = assay: Pharmacodynamic effects, pAKT in PC-3 xenograft tumors; assay type: in vivo, mouse; conditions: mice given 3 mg/kg or 10 mg/kg, 1-24 hours
Protocol: Female nude mice (Charles River Laboratories, Wilmington, Del.; strain CD-1-Foxn1, 6 weeks of age) were injected subcutaneously with 2 million PC-3 (human prostate carcinoma) cells mixed 1:1 with Matrigel in the flank. Tumors were allowed to grow for approximately 5 weeks. […] The tumor was excised. Half of each tumor was immediately processed by Medicon (BD Catalog #340592) in 1 mL Meso-Scale Discovery (MSD) lysis buffer with protease inhibitors (Roche complete protease cocktail, cat#04 693 116 001) and phosphatase inhibitors (Sigma, cat #P2850 and P-5726) for 30-60 seconds and transferred to 1.5 mL Eppendorf tubes. Tubes remained on wet ice until they were centrifuged for 10 minutes at 4° C. at maximum speed in a tabletop refrigerated centrifuge. Tumor lysates were serially diluted in 96-well polypropylene plates on wet ice. Lysates (150 μL) were loaded in row 1; rows 2-12 were loaded with 75 μL of complete Meso Scale Discovery (MSD) lysis buffer (supplied in MSD kit; #[…]-3). Samples were serially diluted 2-fold across the plate by sequential transfer of 75 μL through well 11; row 12 contained lysis buffer only. […] Plates were washed as described above, before the addition of 150 μL of MSD read buffer and read immediately on a 6000 MSD plate reader. […] P/T AKT was calculated as shown: (phospho AKT(Ser473) signal)/[(phospho AKT(Ser473) signal)+(total AKT signal)]. […]

LOXIMVI = assay: Anchorage Independent Soft Agar Tumor Growth Assay, LOXIMVI; assay type: cell-based; conditions: percent of DMSO-treated control at Ymin plateau
Protocol: as §1

HCC70 = assay: Anchorage Independent Soft Agar Tumor Growth Assay, HCC70; assay type: cell-based; conditions: percent of DMSO-treated control at Ymin plateau
Protocol: as §1

MDA-MB-468 = assay: Anchorage Independent Soft Agar Tumor Growth Assay, MDA-MB-468; assay type: cell-based; conditions: percent of DMSO-treated control at Ymin plateau
Protocol: as §1

BT549 = assay: Anchorage Independent Soft Agar Tumor Growth Assay, BT549; assay type: cell-based; conditions: percent of DMSO-treated control at Ymin plateau
Protocol: Cells were seeded into either a T-75 or a T-175 flask 3-4 days prior to 96-well assay plating such that the flasks were approximately 70-80% confluent of the time of harvest. Cells were harvested using 0.25% trypsin-EDTA (Invitrogen #25200056). Trypan Blue exclusion staining was used to determine cell number. Viable cells were plated in clear, flat bottom 96-well plates (BD #353075) under anchorage independent conditions at 2,000-10,000 cells per well depending on the cell line. To generate anchorage independent growth conditions, a 5% agar stock solution in water was made and autoclaved to melt and sterilize. From the 5% agar solution, a 0.6% agar/media+10% fetal bovine serum (FBS) solution was made to generate a bottom agar layer in the plates to prevent cell attachment. Seventy five microliters per well of the 0.6% agar-media solution was added to the plates. […] The next day one plate of cells was processed at the time of compound addition to quantify the starting number of cells (T=0 or T0). […] Following the 6-day incubation, 20 μl of Alamar Blue (Invitrogen #DAL1100) was added to the cells, incubated at 5% CO2 and 37° C. for 6 hours and the plates read on a Spectramax (Gemini EM) at 530 nm (excitation) and 590 nm (emission) with the auto cut-off disabled. […]

C32 = assay: Anchorage Independent Soft Agar Tumor Growth Assay, C32; assay type: cell-based; conditions: percent of DMSO-treated control at Ymin plateau
Protocol: as §1

BT474 = assay: Anchorage Independent Soft Agar Tumor Growth Assay, BT474; assay type: cell-based; conditions: percent of DMSO-treated control at Ymin plateau
Protocol: as §1

Cc1c(Cn2c(C)nc3c(C(=O)O)cc(N4CCOCC4)cc32)cccc1C(F)(F)F [Example 31, 2-methyl-1-{[2-methyl-3-(trifluoromethyl)phenyl]methyl}-6-(4-morpholinyl)-1H-benzimidazole-4-carboxylic acid]
Ymin ± StDev (HCC19377): 67 ± 8 | Ymin ± StDev (HCT-116): >80 | Ymin ± StDev (HCC1954): >80 | Ymin ± StDev (U251): 80 ± 17 | Ymin ± StDev (WM-115): 54 ± 14 | Ymin ± StDev (SW1783): 69 ± 4 | Ymin ± StDev (UM-UC-3): 83 ± 29 | Ymin ± StDev (HCC1395): 26 ± 9 | Ymin ± StDev (SKOV-3): >80 | Ymin ± StDev (H4): 55 ± 18 | Ymin ± StDev (U-87MG): 34 ± 18 | Ymin ± StDev (Colo205): >80 | Ymin ± StDev (PC-3): 82 ± 13 | Ymin ± StDev (SW1088): 36 ± 8 | Ymin ± StDev (UACC-62): 76 ± 18 | Ymin ± StDev (CHL-1): 82 ± 2 | inhibition of the pharmacodynamic marker pAKT (pAKT/tAKT) (pAKT (pAKT/tAKT)): dose dependent inhibition | Ymin ± StDev (LOXIMVI): >90 | Ymin ± StDev (HCC70): 27 ± 8 | Ymin ± StDev (MDA-MB-468): 44 ± 6 | Ymin ± StDev (BT549): 52 ± 7 | Ymin ± StDev (C32): 20 ± 14 | Ymin ± StDev (BT474): 75 ± 3
